The target of assay [1] is PBP2 (Klebsiella pneumoniae, UniProt A6T696). The arrangement: method as in PMID 29712652. Conditions: read-out: IC50, PBP2; value in parentheses; K. pneumoniae ATCC 43816; cited from earlier work.
The target in assay [2] is T1, PBP2 (Acinetobacter baumannii, UniProt D0C8Z9).
T1 construct: Five microliters of total bacterial membrane preparation was mixed with 5 μL of a test compound; endogenous in cells
T1 sequence (D0C8Z9 1-672): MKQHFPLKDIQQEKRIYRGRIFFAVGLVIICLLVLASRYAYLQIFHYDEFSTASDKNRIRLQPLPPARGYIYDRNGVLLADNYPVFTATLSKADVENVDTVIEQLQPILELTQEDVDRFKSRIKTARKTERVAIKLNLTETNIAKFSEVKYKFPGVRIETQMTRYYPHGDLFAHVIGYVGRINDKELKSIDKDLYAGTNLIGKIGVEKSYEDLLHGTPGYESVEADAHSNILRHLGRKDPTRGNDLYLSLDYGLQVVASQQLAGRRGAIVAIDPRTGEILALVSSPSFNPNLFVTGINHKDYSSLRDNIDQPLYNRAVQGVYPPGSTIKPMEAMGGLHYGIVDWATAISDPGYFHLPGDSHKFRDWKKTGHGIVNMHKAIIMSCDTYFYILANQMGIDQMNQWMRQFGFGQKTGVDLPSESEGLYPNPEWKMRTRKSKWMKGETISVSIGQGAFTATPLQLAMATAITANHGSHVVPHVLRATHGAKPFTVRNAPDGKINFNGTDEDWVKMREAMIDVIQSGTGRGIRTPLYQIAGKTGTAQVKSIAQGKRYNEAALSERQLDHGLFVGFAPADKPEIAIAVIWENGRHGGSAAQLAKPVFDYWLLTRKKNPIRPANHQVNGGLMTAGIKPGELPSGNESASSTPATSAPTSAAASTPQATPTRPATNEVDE
The arrangement: method as in earlier work. Conditions: value in parentheses; A. baumannii ATCC 19606; cited from earlier work.

The target of assay [3] is PBP3 (Acinetobacter baumannii, UniProt A0ABX6CK25). The arrangement: method as in earlier work. Particulars: read-out: IC50, PBP3; value in parentheses; A. baumannii ATCC 19606; cited from earlier work.
For assay [4], the system named is PBP2. The arrangement: method as in PMID 18250190. Conditions: value in parentheses; E. coli MC1400; cited from earlier work.
Assay [5] concerns Serratia marcescens. Nature of the assay: Broth microdilution MIC (CLSI), Serratia marcescens. Particulars: 10 isolates. The class given is cell-based. An excerpt: (§1) Bacterial isolates were subjected to broth microdilution susceptibility testing, performed according to Clinical and Laboratory Standards Institute (CLSI) methods ([46]), using panels prepared in-house. Meropenem was purchased from Sandoz, and all other antibiotics were from Sigma-Aldrich. Xeruborbactam was synthesized at Qpex Biopharma, San Diego, CA. Avibactam was purchased from eNovation Chemicals LLC, Bridgewater, NJ, USA; zidebactam was from MedKoo Biosciences, Inc., Morrisville, NC, and nacubactam was from Advanced ChemBlocks, Hayward, CA. Durlobactam was synthesized at Acme Bioscience, Palo Alto, CA, USA.
Background: Broth dilution looks for growth in wells or tubes with falling amounts of substance.

The subject of assay [6] is Klebsiella oxytoca. Nature of the assay: Broth microdilution MIC (CLSI), Klebsiella oxytoca. Type of assay: cell-based.
Source text: as §1

In assay [7] the test system is P. aeruginosa strain PAM1154. Nature of the assay: Fluorescence microscopy, cellular morphology. Type of assay: cell-based, Pseudomonas aeruginosa. Conditions: treated at 1× or 2× MIC. On the procedure: Single colonies of K. pneumoniae strain KPM1026a, A. baumannii strain ATCC 17978, and P. aeruginosa strain PAM1154 were picked from LB agar plates, inoculated in cation-adjusted Mueller-Hinton broth (CA-MHB), and incubated overnight at 30°C with rolling. Overnight cultures were diluted into fresh CA-MHB and incubated at 30°C, with rolling, until they reached an OD600 of ≈0.12 to 0.15 (equivalent to ~2 × 10^8 CFU/mL). Samples were then treated with compounds and incubated at 30°C, with rolling. After 1 or 2 h of treatment, cells were collected and stained with a dye mix containing FM4-64 (1 μg/mL), DAPI (4′,6-diamidino-2-phenylindole) (2 μg/mL), and SYTOX green (0.5 μM) (Molecular Probes, Invitrogen, or Thermo Fisher Scientific). Cells were transferred onto an agarose pad containing 1.2% agarose and 20% LB medium for microscopy. Microscopy was performed as previously described ([34]).

For assay [8], the system named is A. baumannii strain AB1007. Particulars: xeruborbactam at ≥2× MIC, 48 h at 37°C. On the procedure: (§2) Beta-lactamase-negative strains of E. coli (strain ECM5497), A. baumannii (strain AB1007), and K. pneumoniae (strain KPM1026a) were used in resistance development studies. […] […] Single colonies from xeruborbactam-containing plates were grown twice on a nonselective medium before their antimicrobial-resistance levels were assessed. For K. pneumoniae KPM1026a, several independent cultures were used in resistance studies.

Assay [9] relates to E. coli strain ECM5497. Conditions: xeruborbactam at ≥2× MIC, 48 h at 37°C. Here is the method: as §2
In assay [10] the test system is Klebsiella pneumoniae strain KPM1026a. Nature of the assay: Time-kill study. Type of assay: cell-based.
In assay [11] the test system is strain AB1007 of A. baumannii. Nature of the assay: Minimal bactericidal concentration (MBC), A. baumannii. The class given is cell-based. Conditions: Acinetobacter baumannii.
The subject of assay [12] is Other Enterobacterales. Nature of the assay: Broth microdilution MIC (CLSI), other Enterobacterales. Type of assay: cell-based. Conditions: 18 isolates.
Source text: as §1

For assay [13], the system named is Enterobacterales. Nature of the assay: Broth microdilution MIC (CLSI), Enterobacterales. The class given is cell-based.
Source text: as §1

[14] abbreviates: Klebsiella oxytoca, 23 isolates.
Setting [15] is: Enterobacterales, 1,028 isolates.

≈ marks a conversion by molar mass, not a printed value. Where two headings read alike, the source gives them in different places. Some results are limits rather than exact numbers.

PBP2 (Klebsiella pneumoniae, UniProt A6T696), sequence (A6T696 entry or part of it): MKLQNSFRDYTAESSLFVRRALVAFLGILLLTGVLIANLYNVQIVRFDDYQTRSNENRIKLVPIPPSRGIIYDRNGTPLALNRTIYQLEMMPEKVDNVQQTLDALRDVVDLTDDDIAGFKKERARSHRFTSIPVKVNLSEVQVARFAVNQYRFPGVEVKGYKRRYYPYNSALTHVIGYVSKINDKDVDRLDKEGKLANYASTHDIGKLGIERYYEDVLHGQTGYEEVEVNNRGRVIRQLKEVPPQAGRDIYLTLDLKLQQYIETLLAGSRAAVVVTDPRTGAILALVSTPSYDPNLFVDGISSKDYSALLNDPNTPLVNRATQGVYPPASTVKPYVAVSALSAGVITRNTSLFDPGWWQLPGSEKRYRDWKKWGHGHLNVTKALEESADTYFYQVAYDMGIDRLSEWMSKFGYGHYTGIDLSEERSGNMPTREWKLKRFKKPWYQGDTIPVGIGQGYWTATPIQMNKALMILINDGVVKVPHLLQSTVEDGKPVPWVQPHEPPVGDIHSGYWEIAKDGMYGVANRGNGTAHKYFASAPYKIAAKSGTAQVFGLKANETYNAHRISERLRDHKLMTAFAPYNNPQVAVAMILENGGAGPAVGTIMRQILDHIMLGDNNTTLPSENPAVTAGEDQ
PBP3, sequence (A0ABX6CK25 entry or part of it): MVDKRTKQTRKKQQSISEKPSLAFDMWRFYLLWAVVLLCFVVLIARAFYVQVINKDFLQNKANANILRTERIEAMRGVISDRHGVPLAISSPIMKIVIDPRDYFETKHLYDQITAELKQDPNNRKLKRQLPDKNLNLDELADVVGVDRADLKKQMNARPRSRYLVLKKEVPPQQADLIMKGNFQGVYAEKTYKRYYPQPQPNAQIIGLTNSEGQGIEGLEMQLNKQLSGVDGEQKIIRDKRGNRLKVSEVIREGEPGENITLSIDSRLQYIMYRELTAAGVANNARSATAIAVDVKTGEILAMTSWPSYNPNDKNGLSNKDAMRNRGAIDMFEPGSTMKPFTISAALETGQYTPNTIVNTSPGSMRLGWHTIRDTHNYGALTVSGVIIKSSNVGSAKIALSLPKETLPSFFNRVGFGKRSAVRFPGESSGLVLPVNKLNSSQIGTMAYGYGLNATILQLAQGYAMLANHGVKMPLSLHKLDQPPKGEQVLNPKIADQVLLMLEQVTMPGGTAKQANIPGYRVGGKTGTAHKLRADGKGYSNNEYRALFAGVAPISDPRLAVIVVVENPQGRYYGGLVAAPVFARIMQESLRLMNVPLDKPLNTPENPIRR

For `C[C@@H](O)[C@H]1C(=O)N2C(C(=O)O)=C(S[C@@H]3CN[C@H](C(=O)N(C)C)C3)[C@H](C)[C@H]12` [Meropenem], the IC50 – broadly, the concentration needed to halve the response being measured – in assay [1] is < 20 nM; in assay [2] it was < 80 nM; in [3], 330 nM; in [4] it was 3 nM.
As to `O=C(O)c1c(F)ccc2c1OB(O)[C@@H]1C[C@H]21` [Xeruborbactam], the MIC50 (usually the lowest concentration that inhibits either 50% of growth or 50% of the strains tested, depending on the study) was 32 µg/mL (≈ 144 µM) in assay [5], 8 µg/mL (≈ 36 µM) in assay [6] (setting [14]), 16 µg/mL (≈ 72.1 µM) in [12] and 16 µg/mL (≈ 72.1 µM) in assay [13] (setting [15]). Further, the MIC90 – broadly, an inhibitory concentration at the 90% level, which refers to growth in some studies and to a panel of isolates in others – is 32 µg/mL (≈ 144 µM) in [5], 16 µg/mL (≈ 72.1 µM) in assay [6] (setting [14]), 32 µg/mL (≈ 144 µM) in assay [12] and 32 µg/mL (≈ 144 µM) in [13] (setting [15]). For the same compound, the MIC range in assay [5] is 16 to 64 µg/mL; in assay [6] (setting [14]) it was 8 to 32 µg/mL; in assay [12], 8 to 64 µg/mL; in [13] (setting [15]), 2 to 64 µg/mL. Besides, the minimal inhibitory concentration (MIC) (in general, the least concentration at which growth counts as inhibited) is 32 µg/mL (≈ 144 µM) in assay [6] (Klebsiella oxytoca isolates, read-out: highest MIC observed); 16 µg/mL (≈ 72.1 µM) in assay [13] (read-out: modal MIC); 8 to 16 µg/mL (≈ 36 to 72.1 µM) in assay [13] (wild-type strains of Escherichia coli or Klebsiella pneumoniae, read-out: antibacterial potency (MIC)). In assay [7], the cellular morphology result is “filamentation and bulge formation at midcell and eventual cell lysis from the midpoint”. Besides, the “frequency of resistance (FOR)” value in [8] and in assay [9] was < 2 × 10^−9 throughout. In assay [10], the kinetics of killing entry is “time-dependent, concentration-independent bacterial killing”. Besides, the MBC (commonly the smallest concentration meeting the test's criterion for killing) in assay [11] is 16 µg/mL (≈ 72.1 µM).
